Reference: patent publication US10112977B2, “Peptide for inducing multinucleation in cells, and use therefor” (Toagosei Co., Ltd., priority 2014, dated 2018)
Several values for one entry are separate records, joined by “and”; a condition that tells them apart may be missing. Identical values can stand only once. Peptide text beside a SMILES is read from it.

Tests used:
HeLa S3 cells [1] = experiment: Evaluation test 1 of multinucleation-inducing activity (calreticulin cytoimmunostaining and DAPI nuclear staining, confocal fluorescence observation); format: cell-based, human; conditions: peptide concentration 50 μM, culture for 4 days
Procedure: To evaluate the multinucleation-inducing activity of the multinucleation-inducing synthetic peptides (sample 1 and sample 2) obtained in Example 1, cytoimmunostaining (fluorescence immunostaining) was performed using calreticulin as the cytoplasm marker and nuclear staining was performed with DAPI (4′,6-diamidino-2-phenylindole). HeLa S3 cells (ATCC (registered trademark), CCL2.2), a cultured cell strain originating from human cervical cancer, were used as the sample cells. The evaluation test is described in the following.
HeLa S3 cells were seeded into each well of a 4-chamber (well) cell culture slide (also referred to as a chamber) to provide approximately 1×10^3 cells per well and were cultured overnight in an incubator under conditions of 5% CO2 and 37° C. The medium used was a common DMEM medium, i.e., DMEM (Wako Pure Chemical Industries, Ltd., Cat. No. 043-30085) containing 10% […], 100 units/mL of penicillin, and 100 μg/mL of streptomycin. After this overnight culture, the medium in the culture chamber was exchanged for medium obtained by the addition, to the aforementioned DMEM medium containing PBS, penicillin and streptomycin, of the sample 1, sample 2, or sample 3 peptide in an amount providing a peptide concentration of 50 μM, and subculturing was carried out by culture for 4 days under the same conditions. The control group was a peptide-free group in which only PBS (−) was added in the same volume as the peptide stock solution that was added in the sample addition groups.
After completion of the culture period, the status of multinucleation in the cells in each test group was observed using the following cytoimmunostaining.
The cells in each test group wore first fixed followed by a blocking treatment. Specifically, the medium in the culture chamber in the test group was first removed and washing was carried out twice with cold PBS (−). A solution prepared by mixing 1 volume of methanol with 1 volume of acetone (methanol/acetone=1:1 solution) was then added and the HeLa S3 cells were fixed by standing for 15 minutes on ice. The methanol/acetone=1:1 solution was then removed acid washing was carried out three times with cold PBS PBS (−) containing 3% BSA (PBS (−) that contained 3% BSA) was added and a blocking treatment was carried out for 1 hour at room temperature. After the passage of the prescribed period of time, the PBS (−) containing 3% BSA was removed and washing with cold PBS (−) was performed three times. […]
The cells in each test group that had been subjected to this cytoimmunostaining were mounted using a cover glass and Slow Fade (Life Technologies Corporation, Cat. No. S36936), which is a DAPI-containing mountant, and fluorescence observation was performed using a confocal laser microscope. […]

HeLa S3 cells [2] = experiment: Evaluation test 2 of multinucleation-inducing activity (multinucleation induction ratio); format: cell-based, human; conditions: 50 μM peptide, 4 days; for number of multinuclear cells (number): cells with two or more nuclei in 1 field of vision, individual test; for multinucleation induction ratio (%): individual test (1 field of vision)
Procedure: The multinucleation induction ratio was determined for the multinucleation-inducing synthetic peptides (sample 1 and sample 2) obtained in Example 1. The same HeLa S3 cells as in Example 2 were used for the sample cells. The evaluation test is described in the following.
HeLa S3 cells were seeded into each well of an 8-chamber (well) cell culture slide (also referred to as a chamber) to provide approximately 0.5×10^3 cells per well and were cultured overnight in an incubator under conditions of 5% CO2 and 37° C. The medium used was a common DMEM medium, i.e., DMEM (Wako Pure Chemical industries, Ltd., Cat. No. 043-30085) containing 10% FBS, 100 units/mL of penicillin, and 100 μg/mL of streptomycin. After this overnight culture, the medium in the culture chamber was exchanged for medium obtained by the addition of sample 1 or sample 2 in an amount giving a peptide concentration of 50 μM to DMEM medium prepared by adding 3% FBS, 100 units/mL of penicillin, and 100 μg/mL of streptomycin to the aforementioned DMEM, and subculturing was carried out by culture for 4 days under the same conditions. The control group was a peptide-free group in which only PBS (−) was added in the same volume as the peptide stock solution that was added in the sample addition groups.
After completion of the culture period, the cells in the test groups were subjected to cytoimmunostaining of a cytoplasm marker (calreticulin) nuclear staining as in Example 2. After the execution of the cytoimmunostaining and nuclear staining, the cells each test group were subjected to fluorescence observation using a confocal laser microscope and, for the cells observed in 1 field of vision, the total number of cells and the number of cells presenting two or more nuclei (number of multinucleated cells) were counted. The multinucleation induction ratio (proportion (%) for the number of cells having two or more nuclei with reference to the total number of cells observed in 1 field of vision in the microscopic observation) was calculated using the following formula: multinucleation induction ratio (%)=(number of cells having two or more nuclei)÷(total number of cells)×100. Using these conditions air the evaluation test for the multinucleation induction ratio, the test was carried out independently three times and the average multinucleation induction ratio was calculated by taking the average of the multinucleation induction ratios obtained in the individual tests.

Compound | cells in which a plurality of nuclei had formed (induction of multinucleation), fluorescence observation (HeLa S3 cells [1]) | average multinucleation induction ratio (%) (HeLa S3 cells [2]; average of three independent tests) | number of multinuclear cells (number) (HeLa S3 cells [2]) | multinucleation induction ratio (%) (HeLa S3 cells [2]) | number of nuclei per multinucleated cell, compared with sample 2 addition group (HeLa S3 cells [1])
CC(C)C[C@H](NC(=O)[C@@H](NC(=O)[C@H](CCCNC(=N)N)NC(=O)[C@H](CCCCN)NC(=O)[C@@H](N)CCCCN)[C@@H](C)O)C(=O)N[C@@H](CCCNC(=N)N)C(=O)N[C@@H](CCCCN)C(=O)N[C@@H](CC(N)=O)C(=O)N[C@@H](CC(=O)O)C(=O)N[C@@H](CCCNC(=N)N)C(=O)N[C@@H](CCCCN)C(=O)N[C@@H](CCCCN)C(=O)N[C@@H](CCCNC(=N)N)C(=O)NCC(=O)NCC(=O)N[C@@H](CS)C(=O)N[C@@H](CO)C(=O)N[C@@H](CCCNC(=N)N)C(=O)N[C@@H](CCCNC(=N)N)C(=O)N[C@@H](CO)C(=O)N[C@@H](CCCCN)C(=O)N[C@@H](CO)C(=O)N[C@@H](CCCCN)C(=O)N[C@@H](CS)C(=O)O [sample 2, KKRTLRKNDRKKR GG CSRRSKSKC] (H-KKRTLRKNDRKKRGGCSRRSKSKC-OH; N-terminus and C-terminus assumed) | cells in which a plurality of nuclei had formed were observed | 35.6 | 9 number and 12 number and 11 number | 30.0% and 37.5% and 39.3% | 
CC(C)C[C@H](NC(=O)[C@@H](NC(=O)[C@H](CCCNC(=N)N)NC(=O)[C@H](CCCCN)NC(=O)[C@@H](N)CCCCN)[C@@H](C)O)C(=O)N[C@@H](CCCNC(=N)N)C(=O)N[C@@H](CCCCN)C(=O)N[C@@H](CC(N)=O)C(=O)N[C@@H](CC(=O)O)C(=O)N[C@@H](CCCNC(=N)N)C(=O)N[C@@H](CCCCN)C(=O)N[C@@H](CCCCN)C(=O)N[C@@H](CCCNC(=N)N)C(=O)NCC(=O)NCC(=O)N[C@@H](CS)C(=O)N1CCC[C@H]1C(=O)N[C@@H](CC(=O)O)C(=O)NCC(=O)N[C@@H](C)C(=O)N[C@@H](CCCCN)C(=O)N[C@@H](C)C(=O)N[C@@H](CCCNC(=N)N)C(=O)N[C@@H](CS)C(=O)O [sample 1, KKRTLRKNDRKKR GG CPDGAKARC] (H-KKRTLRKNDRKKRGGCPDGAKARC-OH; N-terminus and C-terminus assumed) | cells in which a plurality of nuclei had formed were observed |  | 12 number and 11 number and 13 number | 41.4% and 39.3% and 41.9% | significantly larger number of nuclei per cell
KKRTLRKNDRKKR (listed as Homo sapiens) [sample 3, reference compound] | cells in which a plurality of nuclei had formed were not observed |  |  |  | 
